# Source: patent US20200163938A1, “PHARMACEUTICAL COMPOSITION COMPRISING IRON CHELATOR EXHIBITING ANTITUMOR ACTIVITY, ANTIBACTERIAL ACTIVITY AND/OR ANTIVIRUS ACTIVITY, AND HAVING REDUCED SIDE EFFECTS” (priority 2017, published 2020)
# Assays:
# A549 cells [1] = experiment: Apoptosis induction, TUNEL staining; format: cell-based, human; conditions: 100 μg/mL, 48 hours, FIG. 11C
# Method: Furthermore, the apoptosis-inducing effects of the chelating agents of test groups 6 and 10 on tumors were confirmed. First, 100 μg/mL of the chelating agent of test group 6 or 50 μg/mL of the chelating agent of test group 10 was added to HSC-2 cells in a culture solution. After 48 hours of reaction, TUNEL Assay was carried out. Specifically, apoptosis induction was evaluated by the TUNEL staining method using a MK500 in situ Apoptosis Detection Kit (Takara Bio Inc.).
# Further, the apoptosis-inducing effects of the chelating agent of test group 6 or 10 on A549 cells were confirmed. 100 μg/mL of the chelating agent of test group 6 was added and 50 μg/mL of the chelating agent of test group 10 was added to the cells. After 48 hours of reaction, TUNEL staining was carried out similarly to the above.
# A549 cells [2] = experiment: Western blot of apoptosis-related factors; format: cell-based, human; conditions: A549 cell lysate; FIG. 12
# Text: (§1) The cell lysate of each type of cells treated with the chelating agents of test groups 6 and 10 was Western-blotted, and then an increase or a decrease in apoptosis-related factors in treated cells was confirmed using the indicated antibodies. […] Concentration-dependent apoptosis induction was also biochemically confirmed.
# HSC-2 cells = experiment: Western blot of apoptosis-related factors; format: cell-based, human; conditions: HSC-2 cell lysate; FIG. 12
# Text: as §1
# MCF-7 cells = experiment: Western blot of apoptosis-related factors; format: cell-based, human; conditions: MCF-7 cell lysate; FIG. 12
# Text: as §1
# P. gingivalis Pg W83 = experiment: Antibacterial activity, turbidity and ATP assay; format: cell-based, Porphyromonas gingivalis; conditions: anaerobic culture 37° C., 18 hours, OD595 nm; FIG. 8
# Method: A bacterial strain of one of periodontopathic bacteria, gram-negative bacillus, P. gingivalis, used herein was Pg W83. With the use of a liquid medium prepared by adding the chelating agent of each test group to a modified GAM bouillon medium, anaerobic culture (Anaeropack.anaerobic) was performed at 37° C. for 18 hours. Turbidity was found from optical density (OD595 nm). Results were as depicted in FIG. 8.
smiles,measurement,setting,value
Cl.OCC1OC(O)C(NCc2ccc(O)c(O)c2O)C(O)C1O (centres unmarked) [Test group 6],apoptosis-inducing effects (TUNEL staining),A549 cells [1],green-stained cells (FITC positive cells) indicating apoptosis were confirmed
same,PARP cleaved fragments and caspase-3-cleaved fragments (Western blot),A549 cells [2],PARP cleaved fragments and caspase-3-cleaved fragments were confirmed
same,PARP cleaved fragments and caspase-3-cleaved fragments (Western blot),HSC-2 cells,PARP cleaved fragments and caspase-3-cleaved fragments were confirmed
same,PARP cleaved fragments and caspase-3-cleaved fragments (Western blot),MCF-7 cells,PARP cleaved fragments and caspase-3-cleaved fragments were confirmed
same,antimicrobial effects on P. gingivalis (turbidity),P. gingivalis Pg W83,exhibited antimicrobial effects
